Source: patent US5504244A, “Alkylarylketo acids” (Boehringer Ingelheim Pharmaceuticals, Inc., priority 1993, dated 1996)
Where two headings read alike, the source gives them in different places.

Tests used:
Assay type in all cases: cell-based
[1] = tested on: 5-HETE biosynthesized by glycogen-stimulated polymorphonuclear leucocytes (PMNs); assay: Hydroxyacid Profile Assay (HPA): inhibition of 5-HETE synthesis in glycogen-elicited rabbit PMNs; settings: Oryctolagus cuniculus, Leucocyte; for inhibition at 100 µM: read-out: Percent Inhibition (100 μM); for IC50: read-out: IC50 (50% inhibition of 5-HETE synthesis)
Method: As previously noted 5-HETE biosynthesis serves as a marker for arachidonic acid metabolism via the 5-lipoxygenase pathway which produces (poly)hydroxyeicosatetraenoic acids and the potent bronchoconstrictor and vasoactive leukotrienes LTC4, LTD4 and LTE4.
Buffer A (8.70 g NaCl; 0.27 g KCl; 0.42 g Na2 HPO4; 0.76 g KH2 PO4; and 1.00 g dextrose per liter H2 O; pH 7.0) (0.325 ml) is introduced into each of a battery of screwtop culture tubes. Then, a solution of a compound (0.100 ml) to be assayed is dispensed into individual tubes. Assays are performed in duplicate at 100 μM and 10 μM concentrations. Control tubes receive Buffer A (0 100 ml) in lieu of compound. Next, rabbit PMNs (2×10^7 cells/tube; 4×10^7cells/ml) (0.500 ml) are added to each tube. The rabbit PMN's used are elicited with glycogen and made into a preparation substantially as described by F. Hirata. et al (1979) Proc. Natl. Acad. Sci. USA, 76, 2640-2643. The tubes are vortexed and preincubated in a shaking 37° C. water bath for 15 minutes.
Thereafter, the tubes are removed from the water bath and calcium ionophore solution (400 μg/ml A-23187; Sigma Chemical Co., St. Louis, Mo.) (0.025 ml), ^14 C-arachidonic acid (0.25 μCi in 0.025 ethanol; New England Nuclear Products, Boston, Mass.) (0.025 ml) and calcium chloride solution (CaCl2.2H2 O ); 105.8 mg/10 […]) (0.025 ml) are added in that order. The tubes are vortexed and returned to the water bath for 30 minutes. The reaction is then terminated by the addition of HCl (0.8N, 0.025 ml).
Extraction and concentration of ^14 C-labeled 5-HETE is performed as follows. First, solution containing 2 parts ethyl acetate, 3 parts CH2 Cl2 and 0.01 ml unlabeled arachidonic acid is added (5.01 ml) to each tube. The tubes are capped and briefly vortexed. The contents of each tube is poured into a polypropylene column fitted with a porous polyethylene disc and Whatman phase separation filter paper. The organic phase is collected by gravity filtration into a conical centrifuge tube, While the aqueous phase is retained in the column by the phase separation paper. Each culture tube is rinsed once with the EtOAc:CH2 Cl2 solution (1.0 ml) and the wash added to the column. The organic phase is concentrated to (0.5 ml) using a Savant Speed Vac concentrator (Savant Instruments, Inc., Hicksville, N.Y.).
After concentration of the organic phase, the tubes are vortexed and stored covered on ice. An aliquot (0.01 ml) is then removed for liquid scintillation counting in a Beckman LS7500 Liquid Scintillation Counter (Beckman Instruments Corp., Fullerton, Calif.). Based on the count, the number of μl containing 1×10^5 cpm is calculated. This volume is applied to a silica gel covered glass plate in a 10 mm streak. The remaining fluid in the tube is measured via syringe and noted.
The TLC plate is placed in a chromatography chamber containing the following solvent system: CHCl3 :MeOH:HOAc:H2 O (v/v;90: 9:1:0.65). The plate is then air dried and counted on a Berthold Linear TLC Analyzer (Berthold Instruments, Inc., Pittsburgh, Pa.) for 30 minutes per lane if a dose response curve had been run, or for 5 min per lane if drug screening had been done. The integrated area of the 5-HETE band for each compound is converted to percent of control and analyzed. The percent inhibition at 100 μM compound concentration and the concentration (μM) which produces a 50% inhibition of 5-HETE synthesis (IC50), are determined for those compounds described in Examples 1-36, and are reported in Table 1 .

guinea pig ileal strips [2] = assay: Modified Schultz-Dale Assay: inhibition of antigen-induced anaphylactic contraction of passively sensitized ileal strips; settings: Cavia porcellus; for IC50: value in parentheses
Method: In the classic Schultz-Dale assay, guinea pigs are sensitized with a known immunogen or passively sensitized with guinea pig antiserum to the immunogen, strips of ilea are recovered, and the extent of their contraction in response to a challenge exposure to the same antigen is observed as a measure of anaphylactic response. The experiments described here follow this same procedure while exposing the ileal strips to test compound before exposure to antigen challenge (preincubation) and, in some strips, also after antigen challenge (postincubation).
The male Hartley strain guinea pigs (450-650 g) whose ilea are used in this Schultz-Dale assay are passively sensitized with IgE antiovalbumin antiserum as follows. The antiserum is developed in another group of similar guinea pigs as described in Graziano, et al., J. Immunol. 127:1067-1070 (1981) and pooled. The test animals are then each passively sensitized by subcutaneous injection of the pooled antiserum (1 ml).
About 2-7 days after sensitization, the guinea pigs are sacrificed and the terminal ilea are removed. They are cut into strips (6 cm) and positioned in tissue baths (5 ml) of Tyrode's solution with atropine (1 μg/ml) at 37° C. One end of each strip is fixed to an immobile post and the other movably mounted to a Grass Ft. 0.03 linear force displacement transducer and a Grass Model 7 polygraph. The tension is set (at 1 gram) and the tissue is allowed to equilibrate (10 minutes). Tissue viability is tested by establishing a consistent response to histamine (0.5 μg/ml). After several histamine-induced contractions, mepyramine (1 μg/ml) is added to inhibit any contractions due to the anaphylactic release of endogenous histamine.
A minimum of 3 animals are used for each compound tested and, of the 6 strips from each animal, 2 strips are incubated (preincubation) with a test compound (final concentration 75 μM), 2 with an appropriate reference standard (BW-755C at 75 μM) and 2 with saline solution (control) for a predetermined period (5 minutes). After this initial incubation period, ovalbumin (100 μg/ml) is added to each bath and the resulting anaphylactic contraction measured. The data are recorded as of tension produced by the tissue in excess of the 1 gram tension that was initially set. At the peak of the contraction, a dose of the same test compound (75 μM) is added (postincubation) to one control strip and reference standard (FPL-55712 at 1.9 μM). The strips are monitored (1 minute) and any effect on the established contraction is recorded as described above.
Two types of data are derived from the above protocol. First, pre-antigen inhibition (prechallenge) is expressed as the percent inhibition in each of the strips preincubated with test compound measured against the averaged contractions of the two control strips. Prechallenge inhibition by the reference standard is also determined in each experiment as a positive control. The reference used consistently gives 60-80% inhibition. Second, post-antigen inhibition (postchallenge) is determined by measuring the decrease in anaphylactic contraction of a control strip produced by adding either a test compound or standard at the peak of the contraction. The reference used consistently gives 70-90% inhibition. The data in each experiment, therefore, consists of 2 prechallenge and 1 postchallenge value for both test compound and standard.

guinea pig ileal strips [3] = assay: as above; settings: Cavia porcellus, **tested at 20 μg/ml
[4] = tested on: 5-HETE biosynthesized by glycogen-stimulated polymorphonuclear leucocytes (PMNs); assay: Hydroxyacid Profile Assay (HPA): inhibition of 5-HETE synthesis in glycogen-elicited rabbit PMNs; settings: Oryctolagus cuniculus, Leucocyte, read-out: Percent Inhibition; for inhibition at 50 µM: **tested at 50 μM
[5] = added at peak of contraction after antigen, read-out: Postchallenge IC50
[6] = preincubation before ovalbumin antigen, read-out: Prechallenge IC50
[7] = added at peak of contraction after antigen, read-out: Postchallenge mean percent inhibition
[8] = preincubation before ovalbumin antigen, read-out: Prechallenge mean percent inhibition

SMILES	inhibition at 100 µM ([1]; 5-HETE synthesis) [%]	inhibition at 20 µg/mL (guinea pig ileal strips [3]; [7]) [%]	inhibition at 20 µg/mL (guinea pig ileal strips [3]; [8]) [%]	other results
CCCCCCCc1ccc(C(=O)CCCCC(=O)O)cc1 [Example 1, 5-(4-n-Heptylbenzoyl)pentanoic acid]	78	68	81	IC50 [1]: 30 µM; IC50 (guinea pig ileal strips [2]; [5]): 48 µM; IC50 (guinea pig ileal strips [2]; [6]): 27 µM
CCCCCc1ccc(C(=O)CCCCC(=O)O)cc1 [Example 2, 5-(4-n-Pentylbenzoyl)pentanoic acid]	59	58	81	IC50 [1]: 70 µM; IC50 (guinea pig ileal strips [2]; [5]): > 75 µM; IC50 (guinea pig ileal strips [2]; [6]): 35 µM
CCCCCc1ccc(C(=O)CCCC(=O)O)cc1 [Example 3, 4-(4-n-Pentylbenzoyl)butanoic acid]	0	47	65	
CCCCCc1ccc(C(=O)CCC(=O)O)cc1 [Example 4, 3-(4-n-Pentylbenzoyl)propanoic acid]	65	49	65	
CCCCCCCCCc1ccc(C(=O)CCCCC(=O)O)cc1 [Example 9, 5-(4-n-Nonylbenzoyl)pentanoic acid]	79	2	33	
CCCCCCCCCCc1ccc(C(=O)CCCCC(=O)O)cc1 [Example 10, 5-(4-n-Decylbenzoyl)pentanoic acid]	88	11	7	
CCCCCCCCCCCCCCc1ccc(C(=O)CCCCC(=O)O)cc1 [Example 11, 5-(4-n-Tetradecylbenzoyl)pentanoic acid]	76	14	1	
CCCCCCOc1ccc(C(=O)CCCCC(=O)O)cc1 [Example 12, 5-(4-n-Hexyloxybenzoyl)pentanoic acid]	75	18	70	
CCCCCCCc1ccc(C(=O)c2ccc(C(=O)O)cc2)cc1 [Example 14, 4-(4-n-Heptylbenzoyl)benzoic acid]				inhibition at 75 µM (guinea pig ileal strips [2]; [7]): 16%; inhibition at 75 µM (guinea pig ileal strips [2]; [8]): 44%; inhibition at 50 µM [4]: 87%
CCCCCCCc1ccc(C(=O)CCCCCC(=O)O)cc1 [Example 20, 6-(4-n-Heptylbenzoyl)hexanoic acid]				inhibition at 75 µM (guinea pig ileal strips [2]; [7]): 3%; inhibition at 75 µM (guinea pig ileal strips [2]; [8]): 57%; inhibition at 50 µM [4]: 60%
Cc1ccc(C(=O)CCCCC(=O)O)cc1 [Example 21, 5-(4-Methylbenzoyl)pentanoic acid]		11	29	inhibition at 10 µM ([1]; at 10 μM, 5-HETE synthesis, read-out: Percent Inhibition): 0%
O=C(O)CCCC(=O)c1ccccc1 [Example 22, 4-Benzoylbutanoic acid, reference compound]		11	0	inhibition at 1000 µM ([4]; at 1000 μM): 0%
